Common to all, as to type: biochemical
The target in experiment [1] is CDK2 complexed with cyclin A (Homo sapiens, UniProt P24941). In words: Cyclin dependent kinase activity assay, phosphorylation of synthetic peptide PKTPKKAKKLRRR
To be noted: 0.1 mM ATP, read-out: CDK 2 Activity*. Here is the method: (§1) The assay of cyclin dependent kinase activity was determined by monitoring the phosphorylation of a synthetic peptide, PKTPKKAKKLRRR. The assay mixture contained 0.1 mM cold ATP, ^33P-γ-ATP (2000-4000 cpm/μL), 0.1 mM peptide, 1 mM DTT, and 10 mM MgCl2 in 100 mM HEPES buffer pH 7.4. The assay mixture, along with inhibitor and CDK enzyme (0.3-0.4 U/mL; either CDK5 complexed with p25, CDK2 complexed with complexed with cyclin A), was mixed together in a microtiter plate in a final volume of 40 μL, sealed and incubated for 2 hours at 30° C. Following incubation, a 15 μL aliquot was added to a Whatman P81 filtration plate containing 100 μL 0.5% phosphoric acid. This mixture was allowed to stand for 5 minutes prior to filtration on a vacuum manifold. The filter plate was washed with 5 successive additions of 300 μL 0.5% phosphoric acid. The filtration plate was air dried for 10 minutes before sealing the bottom. After addition of scintillation fluid to the sealed plate, phosphorylated peptide was quantified in a scintillation counter.

The target of the next experiment is CDK5 complexed with p25 (Homo sapiens, UniProt Q00535). The experiment is described as above. The conditions noted are these: CDK5 complexed with p25, 0.1 mM ATP; read-out: CDK 5 Activity*. How it is done: as §1
Chain of CDK5 complexed with p25 (Q00535 whole entry): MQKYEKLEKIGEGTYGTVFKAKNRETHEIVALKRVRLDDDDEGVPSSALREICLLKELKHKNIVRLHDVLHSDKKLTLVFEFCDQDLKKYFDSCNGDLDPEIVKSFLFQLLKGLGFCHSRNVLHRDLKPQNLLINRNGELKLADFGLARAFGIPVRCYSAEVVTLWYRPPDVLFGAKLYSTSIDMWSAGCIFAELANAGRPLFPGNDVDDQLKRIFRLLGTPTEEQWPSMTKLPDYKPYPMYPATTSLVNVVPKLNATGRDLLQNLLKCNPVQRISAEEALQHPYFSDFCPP
Chain of CDK5 complexed with p25 (Q15078 99-307 partner limits assumed): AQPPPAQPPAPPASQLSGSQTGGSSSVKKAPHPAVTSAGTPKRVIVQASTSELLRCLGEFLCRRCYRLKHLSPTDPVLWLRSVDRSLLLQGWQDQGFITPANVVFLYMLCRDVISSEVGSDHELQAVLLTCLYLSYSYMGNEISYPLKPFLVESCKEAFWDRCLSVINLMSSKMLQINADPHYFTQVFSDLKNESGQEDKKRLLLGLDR
In the next experiment the target is KDR (Homo sapiens, UniProt P35968). In words: Enzyme assay for  (KDR), IC50 determination. To be noted: 50 nM KDR, 500 μM ATP. Here is the method: Enzyme assays for IC50 determinations were performed in 96-well titer plates, in a total reaction volume of 50 μL. Each reaction contained 1.5 μL of appropriate dilutions of inhibitor, 50 mM Hepes, pH 7.4, 1 mM DTT, 10 mM magnesium chloride, 2 mM phospho-poly(E4Y) (Sigma Chemical Company), 500 μM unlabeled ATP, 0.0025 μM [^33P]ATP (Amersham Pharmacia Biotech), and 50 nM KDR. All components except KDR were added to the wells, and the reaction was started by the addition of the enzyme. The reactions were mixed and incubated at room temperature for 1 hr, after which the reactions were quenched by the addition of 50 μL of 8% phosphoric acid. At this point, 90 μL aliquots of the samples were applied to positively charged DEAE 96-well filter plates (Millipore Corporation MADENOB10). The plates were incubated for 30 min at room temperature. The samples were aspirated and the wells were washed 3 times with 200 μL of 0.5% phosphoric acid. To each well, 50 μL of scintillation cocktail was added and counted for 60 sec in a TopCount microplate scintillation counter (Packard Instrument Company). The concentration of a compound that inhibited the activity of KDR by 50% (IC50) was determined based its inhibition curve.
Chain of KDR (P35968 20-1356): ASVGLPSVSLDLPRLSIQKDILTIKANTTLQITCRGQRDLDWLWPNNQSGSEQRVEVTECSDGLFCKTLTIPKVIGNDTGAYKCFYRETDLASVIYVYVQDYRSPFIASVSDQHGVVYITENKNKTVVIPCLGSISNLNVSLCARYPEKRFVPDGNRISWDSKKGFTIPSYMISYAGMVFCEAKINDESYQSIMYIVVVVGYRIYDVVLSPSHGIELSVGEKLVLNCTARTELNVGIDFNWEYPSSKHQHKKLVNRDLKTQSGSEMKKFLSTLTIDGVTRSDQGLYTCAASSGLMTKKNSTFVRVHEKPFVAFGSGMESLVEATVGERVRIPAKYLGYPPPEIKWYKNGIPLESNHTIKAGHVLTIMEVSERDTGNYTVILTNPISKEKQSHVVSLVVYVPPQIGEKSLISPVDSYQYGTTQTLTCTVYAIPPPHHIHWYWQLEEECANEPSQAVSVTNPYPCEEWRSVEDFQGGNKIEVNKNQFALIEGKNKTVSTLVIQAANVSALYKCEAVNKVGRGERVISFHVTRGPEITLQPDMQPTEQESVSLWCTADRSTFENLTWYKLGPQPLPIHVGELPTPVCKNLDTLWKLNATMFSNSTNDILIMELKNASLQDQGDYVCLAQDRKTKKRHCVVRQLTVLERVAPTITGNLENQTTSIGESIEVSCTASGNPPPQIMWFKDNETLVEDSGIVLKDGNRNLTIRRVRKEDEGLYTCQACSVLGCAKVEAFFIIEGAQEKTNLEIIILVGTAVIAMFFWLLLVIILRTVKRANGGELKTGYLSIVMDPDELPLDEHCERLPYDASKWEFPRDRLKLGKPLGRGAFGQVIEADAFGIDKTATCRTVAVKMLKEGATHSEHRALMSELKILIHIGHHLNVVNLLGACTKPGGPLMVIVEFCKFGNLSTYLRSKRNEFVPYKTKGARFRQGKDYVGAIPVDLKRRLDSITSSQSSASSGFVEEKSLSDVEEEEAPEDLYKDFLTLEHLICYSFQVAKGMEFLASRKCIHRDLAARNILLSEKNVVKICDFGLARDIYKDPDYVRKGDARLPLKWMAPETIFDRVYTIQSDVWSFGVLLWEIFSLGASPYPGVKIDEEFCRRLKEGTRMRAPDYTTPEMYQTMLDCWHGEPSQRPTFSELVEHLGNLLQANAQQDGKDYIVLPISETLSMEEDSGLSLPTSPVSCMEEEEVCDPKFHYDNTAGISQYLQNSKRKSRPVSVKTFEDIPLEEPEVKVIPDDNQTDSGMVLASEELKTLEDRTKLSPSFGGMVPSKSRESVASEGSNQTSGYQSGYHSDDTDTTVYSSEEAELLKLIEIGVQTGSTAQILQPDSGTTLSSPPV

Where a name gives a salt, the structure may show the parent alone. Some results are limits rather than exact numbers.

Turning to `Nc1nc(-c2cc(-c3ccc(O)cc3)ccc2O)cc(N2CCC[C@@H]2CO)n1` [Example 80, 3-[2-Amino-6-(2S-hydroxymethyl-pyrrolidin-1-yl)-pyrimidin-4-yl]-biphenyl-4,4′-diol], the values for the IC50 (in experiment [1]; at CDK5 complexed with p25; at KDR) were under 500 nM, under 500 nM and 1000 to 20000 nM, respectively.

Turning to `Nc1ccc(-c2cc(-c3cc(-c4ccc(O)cc4)ccc3O)nc(N)n2)cc1` [Example 90, 3-[2-Amino-6-(4-amino-phenyl)-pyrimidin-4-yl]-biphenyl-4,4′-diol], the IC50 in experiment [1] was under 500 nM; on CDK5 complexed with p25 it was under 500 nM; against KDR, under 1000 nM.

Regarding `Nc1nc(N[C@@H](CO)Cc2ccccc2)cc(-c2cc(-c3ccc(O)cc3)ccc2O)n1` [Example 86, 3-[2-Amino-6-(1R-benzyl-2-hydroxy-ethylamino)-pyrimidin-4-yl]-biphenyl-4,4′-diol], the IC50 in experiment [1] is under 500 nM; on CDK5 complexed with p25, under 500 nM; against KDR, 1000 to 20000 nM.

In the case of `NC(=S)N/N=C/c1cc(-c2ccc(O)c(F)c2)ccc1O` [Example 23, 5-(3-Fluoro-4-hydroxyphenyl)salicylaldehyde thiosemicarbazone], the IC50 in experiment [1] was under 500 nM; at CDK5 complexed with p25, under 500 nM; against KDR, 1000 to 20000 nM.

Consider `NC(=S)N/N=C/c1cc(-c2ccc3[nH]ccc3c2)ccc1O` [Example 36, 5-(5-Indolyl)salicylaldehyde thiosemicarbazone], for which the IC50 in experiment [1] is under 500 nM; at CDK5 complexed with p25 it was under 500 nM; on KDR it was 20000 to 50000 nM.

Take `Nc1nc(-c2cccc([N+](=O)[O-])c2)cc(-c2cc(-c3ccc(O)cc3)ccc2O)n1` [Example 88, 3-[2-Amino-6-(3-nitro-phenyl)-pyrimidin-4-yl]-biphenyl-4,4′-diol]: the results for the IC50 (in experiment [1]; on CDK5 complexed with p25; against KDR) were under 500 nM, under 500 nM and 1000 to 20000 nM, respectively.

Regarding `Nc1nc(-c2ccc([N+](=O)[O-])cc2)cc(-c2cc(-c3ccc(O)cc3)ccc2O)n1` [Example 89, 3-[2-Amino-6-(4-nitro-phenyl)-pyrimidin-4-yl]-biphenyl-4,4′-diol], the values for the IC50 (in experiment [1]; at CDK5 complexed with p25; on KDR) were under 500 nM, under 500 nM and 1000 to 20000 nM, respectively.

For `Nc1nccc(-c2cc(-c3ccc4[nH]ccc4c3)ccc2O)n1` [Example 60, 2-(2-Amino-pyrimidin-4-yl)-4-(1H-indol-5-yl)-phenol], the IC50 in experiment [1] was 2000 to 5000 nM; on CDK5 complexed with p25 it was under 500 nM; against KDR it was under 1000 nM.

With `Nc1nc(N[C@H](CO)Cc2ccccc2)cc(-c2cc(-c3ccc(O)cc3)ccc2O)n1` [Example 87, 3-[2-Amino-6-(1S-benzyl-2-hydroxy-ethylamino)-pyrimidin-4-yl]-biphenyl-4,4′-diol], the IC50 in experiment [1] was under 500 nM; at CDK5 complexed with p25, under 500 nM; at KDR, 1000 to 20000 nM.

With `Nc1nc(N)nc(-c2cc(-c3ccc(O)cc3)ccc2O)n1` [Example 58, 3-(4.6-Diamino-[1,3,5]triazin-2-yl)-biphenyl-4,4′-diol], the IC50 in experiment [1] was under 500 nM; at CDK5 complexed with p25, under 500 nM; against KDR, under 1000 nM.

With `Nc1nc(-c2cc(-c3ccc(O)cc3)ccc2O)cc(N2CCOCC2)n1` [Example 81, 3-(2-Amino-6-morpholin-4-yl-pyrimidin-4-yl)-biphenyl-4,4′-diol], the IC50 in experiment [1] is under 500 nM; on CDK5 complexed with p25, under 500 nM; at KDR it was 1000 to 20000 nM.

Consider `Nc1nc(-c2cccc(CO)c2)cc(-c2cc(-c3ccc(O)cc3)ccc2O)n1` [Example 84, 3-[2-Amino-6-(3-hydroxymethyl-phenyl)-pyrimidin-4-yl]-biphenyl-4,4′-diol], for which the IC50 is under 500 nM in experiment [1], under 500 nM at CDK5 complexed with p25 and under 1000 nM on KDR.

Turning to `Nc1nccc(-c2cc(-c3ccc(C=O)o3)ccc2O)n1` [Example 59, 5-[3-(2-Amino-pyrimidin-4-yl)-4-hydroxy-phenyl]-furan-2-carbaldehyde], the IC50 was 500 to 2000 nM in experiment [1], 500 to 2000 nM on CDK5 complexed with p25 and under 1000 nM against KDR.

For `Nc1cc(-c2ccc(O)c(-c3ccnc(N)n3)c2)ccn1` [Example 67, 4-(2-Amino-pyridin-4-yl)-2-(2-amino-pyrimidin-4-yl)-phenol], the IC50 in experiment [1] was under 500 nM; against KDR, under 1000 nM.

For `NC(=S)N/N=C/c1cc(-c2ccc(O)c(O)c2)ccc1O` [Example 25, 5-(3,4-Dihydroxyphenyl)salicylaldehyde thiosemicarbazone], the IC50 in experiment [1] is under 500 nM; on CDK5 complexed with p25, under 500 nM; against KDR, under 1000 nM.

On to `Nc1nc(-c2cc(-c3ccc(O)cc3)ccc2O)cc(-c2ccccc2CO)n1` [Example 83, 3-[2-Amino-6-(2-hydroxymethyl-phenyl)-pyrimidin-4-yl-biphenyl-4,4]-diol], for which the IC50 in experiment [1] was under 500 nM; on CDK5 complexed with p25, under 500 nM; at KDR, under 1000 nM.

Turning to `Nc1nc(-c2ccc(CO)cc2)cc(-c2cc(-c3ccc(O)cc3)ccc2O)n1` [Example 85, 3-[2-Amino-6-(4-hydroxymethyl-phenyl)-pyrimidin-4-yl]-biphenyl-4,4′-diol], the IC50 in experiment [1] is under 500 nM; at CDK5 complexed with p25, under 500 nM; against KDR it was under 1000 nM.

`NC(=O)N/N=C/c1cc(-c2ccc(O)cc2)ccc1O` [Example 22, 5-(4-Hydroxyphenyl)salicylaldehyde semicarbazone hydrochloride]: the values for the IC50 (in experiment [1]; at CDK5 complexed with p25; against KDR) were under 500 nM, under 500 nM and 1000 to 20000 nM, respectively.

As for `Nc1nc(-c2cc(-c3ccc(O)cc3)ccc2O)cs1` [Example 61, 3-(2-Amino-thiazol-4-yl)-biphenyl-4,4′-diol], the IC50 in experiment [1] is under 500 nM; at CDK5 complexed with p25 it was under 500 nM; at KDR, 1000 to 20000 nM.

For the compound `NC(=O)N/N=C/c1cc(-c2ccc(O)c(F)c2)ccc1O` [Example 24, 5-(3-Fluoro-4-hydroxyphenyl)salicylaldehyde semicarbazone hydrochloride], the IC50 in experiment [1] is under 500 nM; on CDK5 complexed with p25, under 500 nM; against KDR, 1000 to 20000 nM.

Regarding `Nc1cccc(-c2cc(-c3cc(-c4ccc(O)cc4)ccc3O)nc(N)n2)c1` [Example 91, 3-[2-Amino-6-(3-amino-phenyl)-pyrimidin-4-yl]-biphenyl-4,4′-diol], the results for the IC50 (in experiment [1]; at CDK5 complexed with p25; against KDR) were under 500 nM, under 500 nM and under 1000 nM, respectively.

For the compound `Nc1nccc(-c2cc(-c3ccc(O)cc3)ccc2O)n1` [Example 57, 3-(2-Amino-pyrimidin-4-yl)-biphenyl-4,4′-diol], the IC50 was under 500 nM in experiment [1], under 500 nM at CDK5 complexed with p25 and under 1000 nM against KDR.
